Assay [1] concerns prostate cancer cells. The arrangement: method as in PMID 21159605. The settings on record: no significant effects on normal prostate epithelial cells; cited from earlier work.
The test system of assay [2] is PC3 human metastatic prostate cancer cells. Put plainly: MTT assay, PC3 cells. The settings on record: PC-3, 72 h, read-out: IC50 PC3. The assay is classed as cell-based. In general terms: Tetrazolium dyes change colour on reduction, which living cells bring about.
In assay [3] the test system is SW480 human primary colon cancer cells. In words: MTT assay, SW480 cells. The assay is classed as cell-based. The following applies: SW480, 72 h, read-out: IC50 SW480.
Assay [4] deals with A549 human lung cancer cells. Put plainly: MTT assay, A549 cells. The assay is classed as cell-based. The settings on record: A549, 72 h, read-out: IC50 A549.
Assay [5] concerns SW620 human metastatic colon cancer cells. In words: MTT assay, SW620 cells. The settings on record: SW-620, 72 h, read-out: IC50 SW620. The format is cell-based.
The nature of assay [6]: Black lipid membrane (BLM) ionic current. The following applies: at −60 mV, 50/150 mM KCl (cis/trans) gradient.
In assay [7] the test system is A549 cells. In words: MitoTracker Green FM flow cytometry (mitochondrial mass), A549. The following applies: A549, 48 h at IC50 concentration. In general terms: Flow cytometry measures light scatter and fluorescence of single cells or particles in a stream.
Assay [8] relates to A549 cells. In words: MitoTracker Red CMXRos flow cytometry (mitochondrial membrane potential), A549. The following applies: A549, 48 h at IC50 concentration.

A word on the IC50: it is the midpoint of a concentration-inhibition curve.

For the compound `CC[C@@]1([C@@H]2O[C@@H]([C@H]3O[C@@](O)(CO)[C@H](C)C[C@@H]3C)C[C@@H]2C)CC[C@H]([C@]2(C)CC[C@]3(C[C@H](O)[C@@H](C)[C@@H]([C@@H](C)[C@@H](OC)[C@H](C)C(=O)O)O3)O2)O1` [MON, Monensin A], in assay [1], the “growth inhibition of prostate cancer cells” value was “selectively inhibited the growth of prostate cancer cells at nanomolar concentrations”.

Take `CC[C@@H](C(=O)[C@@H](C)[C@@H](O)[C@H](C)[C@@H]1O[C@@H]([C@@H](CC)C(=O)O)CC[C@@H]1C)[C@H]1O[C@]2(C=C[C@H](n3cc(COC(=O)CCC[P+](c4ccccc4)(c4ccccc4)c4ccccc4)nn3)[C@]3(CC[C@@](C)([C@H]4CC[C@](O)(CC)[C@H](C)O4)O3)O2)[C@H](C)C[C@@H]1C` [1b]: the IC50 amounted to 5.5 ± 1.4 µM in assay [2], 8.8 ± 2.4 µM in assay [3], 3.9 ± 0.8 µM in assay [4] and 16.8 ± 4.4 µM in assay [5].

Consider `CCC1(C2OC(C3OC(O)(CNC(=O)CCC[P+](c4ccccc4)(c4ccccc4)c4ccccc4)C(C)CC3C)CC2C)CCC(C2(C)CCC3(CC(O)C(C)C(C(C)C(OC)C(C)C(=O)O)O3)O2)O1` (centres unmarked) [2e], for which the IC50 in assay [2] is over 100 µM; in assay [3], 46.7 ± 3.1 µM; in assay [4], over 100 µM; in assay [5] it was 28.1 ± 2.1 µM.

Consider `CCCC[P+](CCCC)(CCCC)Cc1cn([C@H]2C=C[C@]3(O[C@H]([C@@H](CC)C(=O)[C@@H](C)[C@@H](O)[C@H](C)[C@@H]4O[C@@H]([C@@H](CC)C(=O)O)CC[C@@H]4C)[C@@H](C)C[C@H]3C)O[C@@]23CC[C@@](C)([C@H]2CC[C@](O)(CC)[C@H](C)O2)O3)nn1` [1d], for which the IC50 turned out to be 3.6 ± 1.6 µM in assay [2], 2.5 ± 0.6 µM in assay [3], 3.6 ± 0.5 µM in assay [4] and 1.8 ± 0.2 µM in assay [5]. Also, in assay [6], the “ionic current through artificial membrane” value is −10 pA.

Consider `CCC1(C2OC(C3OC(O)(Cn4cc(C[P+](c5ccccc5)(c5ccccc5)c5ccccc5)nn4)C(C)CC3C)CC2C)CCC(C2(C)CCC3(CC(O)C(C)C(C(C)C(OC)C(C)C(=O)O)O3)O2)O1` (centres unmarked) [2a], for which the IC50 in assay [2] came out at 0.4 ± 0.1 µM; in assay [3] it was 0.5 ± 0.1 µM; in assay [4], 0.3 ± 0.02 µM; in assay [5] it was 0.7 ± 0.2 µM.

Regarding `CC[C@@H](C(=O)[C@@H](C)[C@@H](O)[C@H](C)[C@@H]1O[C@@H]([C@@H](CC)C(=O)O)CC[C@@H]1C)[C@H]1O[C@]2(C=C[C@H](n3cc(CNC(=O)CCC[P+](c4ccccc4)(c4ccccc4)c4ccccc4)nn3)[C@]3(CC[C@@](C)([C@H]4CC[C@](O)(CC)[C@H](C)O4)O3)O2)[C@H](C)C[C@@H]1C` [1c], the IC50 in assay [2] came to 12.9 ± 1.3 µM; in assay [3] it was 9.8 ± 2 µM; in assay [4], 15.6 ± 9.1 µM; in assay [5], 14 ± 4.1 µM.

On to `CC[C@@H](C(=O)[C@@H](C)[C@@H](O)[C@H](C)[C@@H]1O[C@@H]([C@@H](CC)C(=O)O)CC[C@@H]1C)[C@H]1O[C@]2(C=C[C@H](n3cc(C[P+](c4ccccc4)(c4ccccc4)c4ccccc4)nn3)[C@]3(CC[C@@](C)([C@H]4CC[C@](O)(CC)[C@H](C)O4)O3)O2)[C@H](C)C[C@@H]1C` [1a], for which the IC50 was 1.2 ± 0.2 µM in assay [2], 9 ± 3.6 µM in assay [3], 2.9 ± 0.5 µM in assay [4] and 16.4 ± 2.4 µM in assay [5].

On to `CC[C@@H](C(=O)[C@@H](C)[C@@H](O)[C@H](C)[C@@H]1O[C@@H]([C@@H](CC)C(=O)OCCCCCC[P+](c2ccccc2)(c2ccccc2)c2ccccc2)CC[C@@H]1C)[C@H]1O[C@]2(C=C[C@@H](OC(=O)CCC(=O)OCCCCCC[P+](c3ccccc3)(c3ccccc3)c3ccccc3)[C@]3(CC[C@@](C)([C@H]4CC[C@](O)(CC)[C@H](C)O4)O3)O2)[C@H](C)C[C@@H]1C` [1f], for which the “cells positive for MTGreen fluorescence” value in assay [7] is recorded as 61.6%. In addition, the “ionic current through artificial membrane” value in assay [6] was −10 pA.

As for `CCC1(C2OC(C3OC(O)(Cn4cc(CNC(=O)CCC[P+](c5ccccc5)(c5ccccc5)c5ccccc5)nn4)C(C)CC3C)CC2C)CCC(C2(C)CCC3(CC(O)C(C)C(C(C)C(OC)C(C)C(=O)O)O3)O2)O1` (centres unmarked) [2c], the IC50 in assay [2] worked out at 14.5 ± 2.1 µM; in assay [3], 18.3 ± 0.4 µM; in assay [4], 14.9 ± 3.4 µM; in assay [5] it was 10.6 ± 0.4 µM.

Take `CCCC[P+](CCCC)(CCCC)Cc1cn(CC2(O)OC(C3CC(C)C(C4(CC)CCC(C5(C)CCC6(CC(O)C(C)C(C(C)C(OC)C(C)C(=O)O)O6)O5)O4)O3)C(C)CC2C)nn1` (centres unmarked) [2d]: the IC50 in assay [2] came to 3.1 ± 0.6 µM; in assay [3], 3.5 ± 0.1 µM; in assay [4], 1.4 ± 0.4 µM; in assay [5] it was 4.3 ± 0.01 µM.

As to `CCC1(C2OC(C3OC(O)(COC(=O)CCC(=O)OCCC[P+](c4ccccc4)(c4ccccc4)c4ccccc4)C(C)CC3C)CC2C)CCC(C2(C)CCC3(CC(O)C(C)C(C(C)C(OC)C(C)C(=O)OCCC[P+](c4ccccc4)(c4ccccc4)c4ccccc4)O3)O2)O1` (centres unmarked) [2f], the IC50 in assay [2] is 1.4 ± 0.1 µM; in assay [3], 1.7 ± 0.3 µM; in assay [4], 1.3 ± 0.2 µM; in assay [5] it was 2.3 ± 0.4 µM. The “MTRed CMXRos positive stained cells” value in assay [8] turned out to be 22.5%.

As to `CCC1(C2OC(C3OC(O)(Cn4cc(COC(=O)CCC[P+](c5ccccc5)(c5ccccc5)c5ccccc5)nn4)C(C)CC3C)CC2C)CCC(C2(C)CCC3(CC(O)C(C)C(C(C)C(OC)C(C)C(=O)O)O3)O2)O1` (centres unmarked) [2b], the IC50 in assay [2] worked out at 0.7 ± 0.3 µM; in assay [3], 0.8 ± 0.04 µM; in assay [4] it was 3.4 ± 1.1 µM; in assay [5], 1.5 ± 0.2 µM.

For the compound `CC[C@@H](C(=O)[C@@H](C)[C@@H](O)[C@H](C)[C@@H]1O[C@@H]([C@@H](CC)C(=O)O)CC[C@@H]1C)[C@H]1O[C@]2(C=C[C@@H](O)[C@]3(CC[C@@](C)([C@H]4CC[C@](O)(CC)[C@H](C)O4)O3)O2)[C@H](C)C[C@@H]1C` [SAL, Salinomycin, reference compound], the IC50 came to 2.7 ± 0.1 µM in assay [2], 1.1 ± 0.04 µM in assay [3], 1.6 ± 0.1 µM in assay [4] and 1.5 ± 0.06 µM in assay [5].

Take `CC[C@@H](C(=O)[C@@H](C)[C@@H](O)[C@H](C)[C@@H]1O[C@@H]([C@@H](CC)C(=O)O)CC[C@@H]1C)[C@H]1O[C@]2(C=C[C@H](NC(=O)CCC[P+](c3ccccc3)(c3ccccc3)c3ccccc3)[C@]3(CC[C@@](C)([C@H]4CC[C@](O)(CC)[C@H](C)O4)O3)O2)[C@H](C)C[C@@H]1C` [1e]: the IC50 was 4 ± 0.7 µM in assay [2], 10.4 ± 2.3 µM in assay [3], 5.1 ± 0.8 µM in assay [4] and 10.9 ± 2.6 µM in assay [5].

Values taken from paper PMC12655037, “Mitochondrial-Targeted Triphenylphosphonium-Conjugated Ionophores with Enhanced Cytotoxicity in Cancer Cells” (Molecules, 2025).
